# Results published in patent US9877957B2, “Tetrahydroisoquinoline derivatives useful as inhibitors of diacylglyceride O-acyltransferase 2” (Merck Sharp & Dohme Corp., priority 2014, dated 2018).
# Molecular target: hDGAT2 (Homo sapiens (Human), UniProt Q96PD7)
# Experiment: DGAT2 Enzymatic Activity Assay (triolein formation, LC/MS/MS)
# Format: biochemical
# Settings: Sf-9 membrane prep expressing hDGAT2; 25 μM diolein, 10 μM oleoyl-CoA; room temperature; read-out: IC50 values for inhibition of DGAT2
# Method in brief: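 Untagged hDGAT2 in Sf-9 membranes (10 ng/μL) with 25 μM diolein and 10 μM oleoyl-CoA in 100 mM Tris·Cl pH 7.0, 20 mM MgCl2, 5% ethanol at room temperature. Triolein measured by LC/MS/MS against spiked internal standard; IC50 from 4-parameter sigmoidal fit of % inhibition.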
# Chain of hDGAT2 (Q96PD7 whole entry): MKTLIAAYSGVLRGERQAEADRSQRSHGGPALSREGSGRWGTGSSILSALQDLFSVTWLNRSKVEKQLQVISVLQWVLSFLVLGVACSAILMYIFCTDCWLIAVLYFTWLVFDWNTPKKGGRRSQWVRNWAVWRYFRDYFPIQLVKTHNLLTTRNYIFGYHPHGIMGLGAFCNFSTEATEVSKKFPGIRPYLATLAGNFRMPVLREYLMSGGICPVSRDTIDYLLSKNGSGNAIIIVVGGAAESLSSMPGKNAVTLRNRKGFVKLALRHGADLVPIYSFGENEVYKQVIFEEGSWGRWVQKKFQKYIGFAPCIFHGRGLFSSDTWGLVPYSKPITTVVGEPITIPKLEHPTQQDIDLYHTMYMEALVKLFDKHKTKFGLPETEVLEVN
row,IC50 [nM],Compound
1,959,"CC(C)(C)NC(=O)N1CCc2c(-c3cccc(C(F)(F)F)c3)ccc(C(=O)NCCc3ncn[nH]3)c2C1 [Example 42, N^8-(2-(1H-1,2,4-triazol-5-yl)ethyl)-N^2-(tert-butyl)-5-(3-(trifluoromethyl)phenyl)-3,4-dihydroisoquinoline-2,8(1H)-dicarboxamide]"
2,390,"CC(NC(=O)c1ccc(-c2cccc(C(F)(F)F)c2)c2c1CN(C(=O)NC(C)(C)C)CC2)c1cn2ncsc2n1 (centres unmarked) [Example 64, N^2-(tert-butyl)-N^8-(1-(imidazo[2,1-b][1,3,4]thiadiazol-6-yl)ethyl)-5-(3-(trifluoromethyl)phenyl)-3,4-dihydroisoquinoline-2,8(1H)-dicarboxamide]"
3,265,"CC(C)(C)NC(=O)N1CCc2c(-c3cccc(C(F)(F)F)c3)ccc(C(=O)NCc3nccc4cccnc34)c2C1 [Example 24, N^8-((1,7-naphthyridin-8-yl)methyl)-N^2-(tert-butyl)-5-(3-(trifluoromethyl)phenyl)-3,4-dihydroisoquinoline-2,8(1H)-dicarboxamide]"
4,727,"CC(C)(C)NC(=O)N1CCc2c(-c3cccc(C(F)(F)F)c3)ccc(C(=O)NCc3n[nH]c4c3CCC4)c2C1 [Example 35, N^2-(tert-butyl)-N^8-((1,4,5,6-tetrahydrocyclopenta[c]pyrazol-3-yl)methyl)-5-(3-(trifluoromethyl)phenyl)-3,4-dihydroisoquinoline-2,8(1H)-dicarboxamide]"
5,53.4,"CC(C)(C)NC(=O)N1CCc2c(-c3cccc(C(F)(F)F)c3)ccc(C(=O)NCc3cnc4ccccn34)c2C1 [Example 66, N^2-(tert-butyl)-N^8-(imidazo[1,2-a]pyridin-3-ylmethyl)-5-(3-(trifluoromethyl)phenyl)-3,4-dihydroisoquinoline-2,8(1H)-dicarboxamide]"
6,32.9,"CC(C)(C)NC(=O)N1CCc2c(-c3cccc(C(F)(F)F)c3)ccc(C(=O)NCCc3nc4ccc(F)cc4[nH]3)c2C1 [Example 8, N^2-(tert-butyl)-N^8-(2-(5-fluoro-1H-benzo[d]imidazol-2-yl)ethyl)-5-(3-(trifluoromethyl)phenyl)-3,4-dihydroisoquinoline-2,8(1H)-dicarboxamide]"
7,66.9,"CC(C)(C)NC(=O)N1CCc2c(-c3cccc(C(F)(F)F)c3)ccc(C(=O)NCc3cncc4ccccc34)c2C1 [Example 10, N^2-(tert-butyl)-N^8-(isoquinolin-4-ylmethyl)-5-(3-(trifluoromethyl)phenyl)-3,4-dihydroisoquinoline-2,8(1H)-dicarboxamide]"
8,2580,"CC(C)(C)NC(=O)N1CCc2c(-c3cccc(OC(F)(F)F)c3)ccc(C(=O)NCCn3ccnn3)c2C1 [Example 76, N^8-(2-(1H-1,2,3-triazol-1-yl)ethyl)-N^2-(tert-butyl)-5-(3-(trifluoromethoxy)phenyl)-3,4-dihydroisoquinoline-2,8(1H)-dicarboxamide]"
9,329,"CC(C)(C)NC(=O)N1CCc2c(-c3cccc(C(F)(F)F)c3)ccc(C(=O)NCCc3cscn3)c2C1 [Example 29, N^2-(tert-butyl)-N^8-(2-(thiazol-4-yl)ethyl)-5-(3-(trifluoromethyl)phenyl)-3,4-dihydroisoquinoline-2,8(1H)-dicarboxamide]"
10,2060,"CC(C)(C)NC(=O)N1CCc2c(-c3cccc(C(F)(F)F)c3)ccc(C(=O)NC3(c4ccccn4)CC3)c2C1 [Example 63, N^2-(tert-butyl)-N^8-(1-(pyridin-2-yl)cyclopropyl)-5-(3-(trifluoromethyl)phenyl)-3,4-dihydroisoquinoline-2,8(1H)-dicarboxamide]"
11,16.7,"CC(C)(C)NC(=O)N1CCc2c(-c3cccc(C(F)(F)F)c3)ccc(C(=O)NCCc3nc4ccc(Cl)cc4[nH]3)c2C1 [Example 58, N^2-(tert-butyl)-N^8-(2-(6-chloro-1H-benzo[d]imidazol-2-yl)ethyl)-5-(3-(trifluoromethyl)phenyl)-3,4-dihydroisoquinoline-2,8(1H)-dicarboxamide]"
